Reference: publication PMC9448861 (Frontiers in Pharmacology, 2022)

How the values were obtained:
Type in all cases: in vivo, C57BL/6J mice
[1] = Pharmacokinetics of ketamine and its metabolite hydroxynorketamine in mouse serum, hippocampus and frontal cortex (noncompartmental analysis, LC-MS/MS); conditions: for AUC0-∞ / Cmax / MRT / t0.5λz / tmax / λz: ketamine 10 mg/kg i.p.
[2] = tested on: mice subjected to CRS and CRS + ZnD; assay: Sucrose preference test (SPT) in mice subjected to CRS or CRS + ZnD
Protocol: (§1) All the compounds/drugs used in the study were obtained commercially, except for hyperforin (sodium salt), which was received as a gift from Dr. Wilmar Schwabe GmbH and Co (Karlsruhe, Germany). […] The control group received only 0.9% NaCl.
(§2) One week after acclimation, the mice were subjected to either a zinc-adequate feed (ZnA, 50 mg/kg) or zinc-deficient/low-Zn feed (ZnD, 3 mg/kg). Beginning from the second week, some ZnD mice were additionally subjected to 3 weeks of CRS. At the beginning of the 5th week, the mice were subjected to their appropriate treatment schedules or behavioral tests (see schemes in the figures).
(§3) CRS was performed in accordance with the procedures of [Ding et al. (2016]) with modifications. Mice from the stress groups were restrained in well-ventilated tubes with caps and holes for breathing (in a separate room from the control groups) for 3 h/day over 3 weeks. After each restraint period, the mice were transferred to housing cages. The control mice were housed at 6 mice per cage in an enriched environment and were handled every third day.
Seven days before the tests, the control and stressed mice were singly housed. The tests were carried out as follows. Two bottles (water and 1% sucrose solution) were placed in each cage 63 h before the test. Twenty-four hours later, the bottles were switched from right to left. Fifteen hours before the tests, the animals were deprived of food, water, and sucrose. The tests lasted 2 h, and sucrose preference was calculated as a percentage of the volume of sucrose intake over the total volume of fluid intake (water and sucrose solution). The SPT was performed during the light phase.

[3] = tested on: Zn levels in the Hp and FC; assay: Analysis of zinc (F-AAS) in the Hp and FC; conditions: CRS + ZnD mice; three doses
Protocol: as §1
The samples were mineralized before the experiments. Briefly, three independent test portions of 0.5 g each were weighed from each sample and transferred to Teflon vessels. Then, 2 mL of 30% H2O2 and 6 mL of 65% HNO3 (V) were added, and the mixture was subjected to wet mineralization in a closed system in a Magnum II mineralizer (ERTEC). Mineralization was carried out for 75 min with three cycles of magnetron operation, where the first 30 min was at 60% power, next 15 min was at 80% power, and the remaining 30 min was at 100% power. The mineralized solution thus obtained was heated on a hot plate at 120 °C for 60 min to remove the excess reagents. The samples were then quantitatively transferred to 10 mL flasks and used to determine the zinc content via the F–AAS method (adsorption and emission technique). An atomic absorption spectrometer (iCE 3500, Thermo Scientific, UK) was used to measure the Zn content; each sample was analyzed independently thrice, and the obtained results are presented as mean value ± standard error of mean (SEM).

[4] = tested on: mice subjected to CRS and CRS + ZnD; assay: Tail suspension test (TST) in mice subjected to CRS or CRS + ZnD; conditions: three doses, 72 h after the last treatment
Protocol: as §1, §2, §3
The TST was performed as described in a previous work ([Pochwat et al., 2018]). Briefly, each mouse was suspended individually by the tail using adhesive tape (2 cm from the tail tip) affixed to a solid flat surface, and immobility times were measured for 6 min. […]

With `N[C@@]1(c2ccccc2Cl)CCC[C@@H](O)C1=O` [Hydroxynorketamine, (2R,6R;2S,6S)-hydroxynorketamine] the “AUC0-∞” value ([1]; frontal cortex, CRS + ZnD mice) was 148.57 µg·min/g, the Cmax ([1]; frontal cortex, CRS + ZnD mice) was 1838.33 ng/g and the MRT ([1]; frontal cortex, CRS + ZnD mice) was 1.137 h. The t0.5λz ([1]; frontal cortex, CRS + ZnD mice) was 52.49 min, the tmax ([1]; frontal cortex, CRS + ZnD mice) was 0.167 h and the λz ([1]; frontal cortex, CRS + ZnD mice) was 0.013 min⁻¹. For the same molecule, the “AUC0-∞” value ([1]; frontal cortex, CRS mice) was 154.18 µg·min/g, the Cmax ([1]; frontal cortex, CRS mice) was 2020.00 ng/g and the MRT ([1]; frontal cortex, CRS mice) was 1.212 h. For the same molecule, the t0.5λz ([1]; frontal cortex, CRS mice) was 59.38 min, the tmax ([1]; frontal cortex, CRS mice) was 0.167 h and the λz ([1]; frontal cortex, CRS mice) was 0.012 min⁻¹. The “AUC0-∞” value ([1]; frontal cortex, Control mice) was 171.66 µg·min/g, the Cmax ([1]; frontal cortex, Control mice) was 1920.83 ng/g and the MRT ([1]; frontal cortex, Control mice) was 1.245 h. It also gave a t0.5λz ([1]; frontal cortex, Control mice) of 50.01 min, a tmax ([1]; frontal cortex, Control mice) of 0.167 h and a λz ([1]; frontal cortex, Control mice) of 0.014 min⁻¹. For the same molecule, the “AUC0-∞” value ([1]; hippocampus, CRS + ZnD mice) was 114.29 µg·min/g, the Cmax ([1]; hippocampus, CRS + ZnD mice) was 1540.00 ng/g and the MRT ([1]; hippocampus, CRS + ZnD mice) was 1.172 h. For the same molecule, the t0.5λz ([1]; hippocampus, CRS + ZnD mice) was 54.06 min, the tmax ([1]; hippocampus, CRS + ZnD mice) was 0.167 h and the λz ([1]; hippocampus, CRS + ZnD mice) was 0.013 min⁻¹. The “AUC0-∞” value ([1]; hippocampus, CRS mice) was 121.64 µg·min/g, the Cmax ([1]; hippocampus, CRS mice) was 1536.83 ng/g and the MRT ([1]; hippocampus, CRS mice) was 1.213 h. The t0.5λz ([1]; hippocampus, CRS mice) was 54.52 min, the tmax ([1]; hippocampus, CRS mice) was 0.167 h and the λz ([1]; hippocampus, CRS mice) was 0.013 min⁻¹. For the same molecule, the “AUC0-∞” value ([1]; hippocampus, Control mice) was 137.36 µg·min/g, the Cmax ([1]; hippocampus, Control mice) was 1591.33 ng/g and the MRT ([1]; hippocampus, Control mice) was 1.349 h. It also gave a t0.5λz ([1]; hippocampus, Control mice) of 58.88 min, a tmax ([1]; hippocampus, Control mice) of 0.167 h and a λz ([1]; hippocampus, Control mice) of 0.012 min⁻¹. The “tissue-to-serum ratios for the metabolite as share of the values observed for the parent compound” value ([1]; in the FC) was “about 80%”, the “tissue-to-serum ratios for the metabolite as share of the values observed for the parent compound” value ([1]; in the serum and Hp) was “about 40%” and the Cmax ([1]; serum, CRS + ZnD mice) was 1726.00 ng/mL. For the same molecule, the MRT ([1]; serum, CRS + ZnD mice) was 1.22 h, the t0.5λz ([1]; serum, CRS + ZnD mice) was 56.28 min and the tmax ([1]; serum, CRS + ZnD mice) was 0.167 h. It also gave a λz ([1]; serum, CRS + ZnD mice) of 0.013 min⁻¹, a Cmax ([1]; serum, CRS mice) of 1269.00 ng/mL and an MRT ([1]; serum, CRS mice) of 1.351 h. It also gave a t0.5λz ([1]; serum, CRS mice) of 59.11 min, a tmax ([1]; serum, CRS mice) of 0.167 h and a λz ([1]; serum, CRS mice) of 0.012 min⁻¹. For the same molecule, the Cmax ([1]; serum, Control mice) was 1152.71 ng/mL, the MRT ([1]; serum, Control mice) was 1.462 h and the t0.5λz ([1]; serum, Control mice) was 62.33 min. The tmax ([1]; serum, Control mice) was 1 h, the λz ([1]; serum, Control mice) was 0.011 min⁻¹ and the “metabolite-to-parent Cmax ratio” value ([1]; serum, control and study groups) was ~1.

In the case of `CN(C)CCCN1c2ccccc2CCc2ccccc21` [IMI, imipramine], the “sucrose preference in the SPT” value ([2]; CRS + ZnD mice, 10 mg/kg chronically (14 days), SPT 24 h after the last treatment) is reported as “the same was not observed” and the “sucrose preference in the SPT” value ([2]; CRS mice, 10 mg/kg chronically (14 days), SPT 24 h after the last treatment) is reported as “restored sucrose preference”.

For `C[C@@H](CN1CCC(Cc2ccccc2)CC1)[C@@H](O)c1ccc(O)cc1` [Ro, Ro 25–6981], the “Zn levels in the Hp and FC” value [3] was “reduced the Zn levels”, the “immobility time in the TST” value [4] was “ineffective” and the “sucrose preference in the SPT” value ([2]; CRS + ZnD mice, three doses (ketamine 10 mg/kg, Ro 10 mg/kg, Hyp 2.5 mg/kg + Lan 10 mg/kg), 24 h after the last treatment) was “failed to restore sucrose preference”. The “sucrose preference in the SPT” value ([2]; CRS mice, three doses (ketamine 10 mg/kg, Ro 10 mg/kg, Hyp 2.5 mg/kg + Lan 10 mg/kg), 24 h after the last treatment) was “did not show any statistically significant antidepressant-like activities”.
